# Assay results taken from a melting point compilation (Tetko et al.; mined from patent text by program, amines drawn as free bases though some values may be those of a salt).
row,melting point,Structure (SMILES)
1,70 °C,COc1ccccc1C(=O)C=Cc1ccncc1
2,146 to 149 °C,Nc1ccc(C(=O)N2CCCCc3sc(Cl)cc32)cc1
3,58 °C,Cc1csc(C(=O)OC(C)C)c1S(=O)(=O)Cl
4,124 to 126 °C,Nc1ccc(Sc2ncccn2)cc1
5,150 to 153 °C,CC(=O)ONC(=N)c1ccc(-c2cccc(-c3nc4ccc(C(=N)NOC(C)=O)cc4[nH]3)n2)cc1
6,273 to 275 °C,Cc1cccc(SSc2cccc(C)c2C(=O)Nc2ccc(S(N)(=O)=O)cc2)c1C(=O)Nc1ccc(S(N)(=O)=O)cc1
7,119 to 120 °C,O=C1CCC(C(=O)OCc2ccc(Cl)cc2)N1 (stereo not given)
8,> 250 °C,CCc1nn(-c2ccc(C(=N)N)cc2)c(=O)n1-c1ccc(CCC(=O)O)cc1
9,168 to 170 °C,N#Cc1nsc2ccc([N+](=O)[O-])cc12
10,112 to 122 °C,CC(Cc1c[nH]c2ccccc12)(NC(=O)OC1C2CC3CC(C2)CC1C3)C(=O)NCC(NC(=O)CSc1ncc[nH]1)c1ccccc1 (stereo not given)
11,150 to 157 °C,COC(=O)c1ncccc1C(=O)c1ccc(-n2ccnc2)cc1
12,78 to 80 °C,COc1cc(C(C)=O)ccc1OCCCCN1CCC(c2nsc3ccccc23)CC1
13,109 to 111 °C,CC(=O)NC[C@@H]1C[C@H]1c1cccc2nn(C)c(F)c12 (relative stereo)
14,250 to 257 °C,CCc1noc(-c2ncc3[nH]c4ccccc4c3n2)n1
15,> 270 °C,N#CNC(=S)Nc1ccc(OCc2ccccc2)cc1
16,121 to 123 °C,O[C@@H]1CNCC[C@H]1Oc1ccc(F)cc1 (relative stereo)
17,250 to 251 °C,O=C(NNC(=O)c1cccc([N+](=O)[O-])c1)c1ccc([N+](=O)[O-])cc1
18,69 to 70 °C,CC(C)(C)OC(=O)N1CCC(=Cc2ccc(F)cc2)CC1
19,44 to 46 °C,CCCCCCCCCCOC1CCC(=O)N1 (stereo not given)
20,117 to 118 °C,O=C(Nc1ccccc1)N1CCN2C(=O)OC(c3ccccc3)(c3ccccc3)C2C1 (stereo not given)
21,207 to 208 °C,C#Cc1cc(F)c(-n2c(=O)c(C)c(C(F)(F)F)n(C)c2=O)cc1NS(C)(=O)=O
22,95 to 97 °C,COc1ccc(CN(Cc2ccc(OC)cc2)c2nccc(-c3ccc(-c4ccc(N(c5ccccc5)c5ccccc5)cc4)cc3)n2)cc1
23,156 to 159 °C,CS(=O)(=O)c1ccc(-c2nc(C(F)(F)F)nc(Cl)c2-c2ccccc2)cc1
24,150 to 152 °C,CCC(CC)(CCC#N)C(NC(=O)c1ccc(Cl)cc1)NC(=NC#N)Nc1cccnc1 (stereo not given)

row,melting point,Structure (SMILES)
1,83 to 85 °C,CS(=O)(=O)c1ccc(-c2cnn(-c3ccc(F)cc3)c(=O)c2Oc2ccc(F)cc2)cc1
2,180 to 183 °C,O=S(Cc1c(F)cccc1Cl)c1nc2cnccc2[nH]1 (stereo not given)
3,222 to 225 °C,Cc1cc2c(c3ccc(=O)[nH]c13)OC(CC(=O)[C@@H](C)N)C2 (stereo not given in full)
4,193 °C,CCCCC1(CC)OCc2c1cnc(C)c2OCC(=O)O (stereo not given)
5,69.5 to 70.5 °C,CCCCCCCC/C=C\CCCCCCCC1=C(O)C(=O)C=C(OC)C1=O
6,200 to 201 °C,CC(C)(C)c1cc(-c2csc(CNC(=O)c3ccccc3)n2)cc(C(C)(C)C)c1O
7,164 to 165 °C,O=C1N(C23CC4CC(CC(C4)C2)C3)CCC1(Cc1ccncc1)Cc1ccncc1
8,135 to 136 °C,Cc1nccn1-c1cccc(Nc2ccc(I)cc2[N+](=O)[O-])c1
9,141 to 143 °C,O=C1OC(c2ccccc2)=NC1Cc1c[nH]c2ccccc12 (stereo not given)
10,230 to 233 °C,COc1ccccc1NC(=O)Nc1nc(Oc2ccc3ccccc3c2)nc(N(CCC(=O)O)Cc2cccc3ccccc23)n1
11,223 to 225 °C,CCC(CC)c1ccc(C#N)c2nc(Nc3c(C)cc(Cl)cc3OC)n(C)c12
12,193 to 194 °C,CC(C)(Cc1cc2cc(OCc3ccc4ccccc4n3)ccc2n1Cc1ccc(Cl)cc1)C(=O)O
13,223 to 224 °C,CN(C)CCn1c(=O)c2cccc(N)c2c2cnc3cc4c(cc3c21)OCO4
14,358 to 359 °C,COc1ccc(-c2nc3ccc(C(=O)O)cc3[nH]2)cc1C12CC3CC(CC(C3)C1)C2
15,246 to 247 °C,O=c1ccc(S(=O)(=O)c2cc3cc(Cl)ccc3o2)n[nH]1
16,140 to 141 °C,CC(CO)C1CCC2C3CCC4=CC(=O)CCC4(C)C3CCC12C (stereo not given)
17,162 to 165 °C,COC(=O)N1CCC(=O)C(C2(NO)OCCO2)C1 (stereo not given)
18,94 to 95 °C,N#CCc1ccc(CCOc2ccc([N+](=O)[O-])cc2)nc1
19,90 to 95 °C,CN1CCC(Nc2ccccc2OCc2ccccc2)CC1
20,328 to 335 °C,CC(C)C(=O)Oc1n[nH]c(=O)c2nc3cc(Cl)ccc3c(O)c12
21,137 to 138 °C,CCC(C(=O)C(C)C(O)C(C)CCC1=C(C(=O)O)C(O)=C(C)CC1=[N+]=[N-])C1OC(CC)(C2CCC(O)(CC)C(C)O2)CC1C (stereo not given)
22,167 to 170 °C,CC(C)(C)OC(=O)N[C@H]1CN(N=C(c2ccccc2)c2ccccc2)C1=O
23,112 to 114 °C,CC(=O)C(=NNc1cccc(C)c1)Sc1ccc(Cl)cc1
24,81 to 86 °C,CCOC(=O)c1[nH]nc(C)c1[N+](=O)[O-]

row,melting point,Structure (SMILES)
1,126 to 127 °C,CN(c1ccc(Cl)cc1)S(=O)(=O)c1cccc(C(=O)Nc2ccc(Br)cc2F)c1
2,50 to 51 °C,CCOC(=O)c1cc2c(nc1C)C(CBr)CCCC2 (stereo not given)
3,31 to 34 °C,COC(=O)c1ccccc1Oc1ccc(C)cc1
4,119 to 122 °C,CCOC(=O)C1CCCc2[nH]c3c(C)ccc(OC)c3c21 (stereo not given)
5,240 °C,O=c1[nH]c2ccc(F)cc2c(=O)o1
6,246 to 248 °C,Cc1sc(-c2ccccc2)nc1CN(C)[C@H]1CC[C@H](c2ccc3[nH]c(=O)oc3c2)CC1
7,42.5 to 43 °C,C1=CCC2=C(C1)CCc1ccccc1C2
8,109 to 112 °C,CN(C)Cc1ccc(C(=O)Nc2nc(-c3ccco3)c(C(=O)C3CCOCC3)s2)cc1
9,148 °C,Cc1cc(Br)ccc1C1(Cn2cncn2)OCCO1
10,139 to 142 °C,Clc1ccc(Nc2nnc(Cl)c3sccc23)cc1
11,228 to 230 °C,O=C1Nc2cc(Cl)cc(Cl)c2C1=O
12,125 to 129 °C,C#Cc1cn(C)c2cc(-c3ccccc3Cl)c3c(c12)C(=O)NC3=O
13,130 to 132 °C,CCN(CC)CC(=O)c1cc(C(=O)c2ccc3ccccc3c2)cn1C
14,> 220 °C,CSc1nn2c(O)cc(CN(C)C)nc2c1S(=O)(=O)c1ccccc1
15,235 to 237 °C,O=C(O)c1ccccc1N1CCN(CC(O)COc2ccccc2)CC1 (stereo not given)
16,65 to 67 °C,Cc1ccc2c(c1)C(=O)C(=O)N2CCN(C(C)C)C(C)C
17,79 to 82 °C,CCCN(CCO)C(=O)c1ccc(C(=O)N2CCN(c3ncccc3NC(C)C)CC2)cc1
18,161 to 162 °C,CC(C(N)=O)c1ccc2c(c1)Sc1ncccc1CC2=O (stereo not given)
19,150 to 152 °C,O=CNCc1ccc2[nH]cc(CCCN3C(=O)c4ccccc4C3=O)c2c1
20,71.6 to 72.8 °C,CC(CO)(CO)C(=O)OCc1ccccc1
21,123 to 125 °C,CCCCS(=O)(=O)NC(=O)C[C@H]1O[C@H](c2cccc(OC)c2OC)c2cc(Cl)ccc2N(CC(C)(C)CO)C1=O
22,122 °C,CN(Cc1ccccc1)c1nc(N2CCC(N(C)C)CC2)nc2c(N3CCOCC3)ncnc12
23,243 to 245 °C,N#Cc1ccc(Cn2cncn2)c(-c2ccc(O)c(Cl)c2)c1
24,236 to 238 °C,CCNC1CCN(c2c(F)cc3c(=O)c(C(=O)O)cn(C4CC4)c3c2F)C1 (stereo not given)

row,melting point,Structure (SMILES)
1,164 °C,CCc1nc(SC)c(C(=O)O)n1Cc1ccc(-c2ccccc2S(=O)(=O)NC(=O)NCc2ccccc2)cc1
2,199 to 200 °C,N#CC(=C(Nc1cc(C(F)(F)F)cc(C(F)(F)F)c1)NC1CCCC1)S(=O)(=O)c1ccc(Cl)cc1
3,104 °C,O=C(c1cccc(O)c1)c1cccc(Cl)c1
4,140 °C,Fc1ccc(F)c(-n2nnc3cccnc32)c1
5,262 to 264 °C,O=S(=O)(Nc1ncnc(Cl)c1-c1ccc(C(F)(F)F)cc1)c1ccc(Cl)cc1
6,285 to 288 °C,CCCc1nn(C)c2c(=O)[nH]c(-c3cc(C(=O)O)ccc3OCC)nc12
7,205 to 207 °C,CCC(=O)Nc1ccc(Cl)c(COc2cccn3c(Br)c(C)nc23)c1Cl
8,180 °C,NC1(C(=O)O)C=CC(Br)=C(F)C1 (stereo not given)
9,> 310 °C,O=C(O)c1ccc2c([N+](=O)[O-])c(O)c(O)cc2c1
10,213 to 215 °C,O=C(O)c1cc(N=Cc2ccccc2)ccc1O
11,280 to 284 °C,COc1ccc2c(c1)Cc1cc(=O)[nH]nc1-2
12,66 to 68 °C,C#CC(C)OC(=O)c1cccc2ccccc12 (stereo not given)
13,218 to 221 °C,COc1cccc(C23CC(=O)NC(=O)C2=CCC(C)C3)c1 (stereo not given)
14,181 to 183 °C,CN1C(=O)CC[C@]2(C)c3ccc(-c4cccc([N+](=O)[O-])c4)cc3CC[C@@H]12
15,177 to 180 °C,CCOC(=O)C(=O)Nc1ccc(-n2ccnc2)cc1
16,202 to 203 °C,CN1CCC(Oc2cccc(Cn3cnc4cc(-c5ccc(Cl)cc5)sc4c3=O)n2)CC1
17,196 °C,CCOC(=O)c1nc2scc(COC(=O)c3ccc(CO)cc3)c2c(=O)[nH]1
18,102 to 103 °C,Cc1oc(C2CCCCC2)nc1CC(=O)O
19,82 to 84 °C,COc1ccc(/C=C(\C#N)c2ccc(N)cc2)cc1OC1CCCC1
20,243 to 245 °C,O=C(O)c1cc2cc(C(=O)c3cccs3)c(Cl)c(Cl)c2o1
21,252 °C,O=C1Nc2ccc(I)cc2C1=NNC(=O)c1ccc(Oc2ccc(CN3CCOCC3)cc2)cc1
22,88.5 to 93 °C,COC(=O)C(Br)(C1=NCCCS1)[N+](=O)[O-] (stereo not given)

row,Structure (SMILES),melting point
1,CCCCN(CCCC)Cc1nnc(-c2ncn3c2CN(C)C(=O)c2ccccc2-3)o1,211 to 213 °C
2,COc1ccc(N2CNC(=O)C23CCN(CCCN(c2ccccc2)c2ccccc2)CC3)cc1,156 to 158 °C
3,CC1CC(C)(C)OOC(C)(CCC(=O)NNC(=O)CCC(=O)O)O1 (stereo not given),122 to 126 °C
4,C=CCc1c(OC)cc(Cc2cnc(N)nc2N)cc1OC,185 to 187 °C
5,O=[N+]([O-])c1ccc(C#CCCN2CC=C(c3ccccc3)CC2)nc1,133 to 134 °C
6,CC12CCCC=C1CCC1C2CCC2(C)C(OC3CCCCO3)CCC12 (stereo not given),92 to 96 °C
